Drawing on US7317037B2, “Progesterone receptor modulators comprising pyrrole-oxindole derivatives and uses thereof” (Wyeth, priority 2004, dated 2008), this text covers ED50 for one molecule.

This test has as its system rat uterine decidualization. Briefly: Rat decidualization assay. Type of test: in vivo. The following applies: po, read-out: ED50 in the rat decidual assay. As for the experimental part:
B. Progestational and Antiprogestational Activity in Mature Ovariectomized Rats (Rat Decidualization Assay)
This assay is used to evaluate the effect of progestins and antiprogestins on rat uterine decidualization and compare the relative potencies of various test compounds.
Test compounds are dissolved in 100% ethanol and mixed with corn oil (vehicle). Stock solutions of the test compounds in oil (Mazola™) are then prepared by heating (˜80° C.) the mixture to evaporate ethanol. Test compounds are subsequently diluted with 100% corn oil or 10% ethanol in corn oil prior to the treatment of animals. No difference in decidual response is found when these two vehicles are compared. […]
Approximately 24 hr after the third injection, decidualization is induced in one of the uterine horns of anesthetized rats by scratching the antimesometrial luminal epithelium with a blunt 21 G needle. […] Approximately 24 hr following the final treatment, rats are sacrificed by […] and bodyweight measured. […]
In agonist mode, the increase in weight of the decidualized uterine horn is calculated by D-horn/C-horn and logarithmic transformation is used to maximize normality and homogeneity of variance. […] EC50 is calculated from the transformed value. […] IC50 is calculated from the retransformed value. […]

`Cn1c(C#N)ccc1-c1cc(F)c2c(c1)C(C)(C)C(=O)N2` [5-(7-fluoro-3,3-dimethyl-2-oxo-2,3-dihydro-1H-indol-5-yl)-1-methyl-1H-pyrrole-2-carbonitrile]: the ED50 was 0.1 mg/kg.
